Assay results from publication PMC9896555, “Cyclic Acetals as Novel Long-Lasting Mosquito Repellents” (Journal of Agricultural and Food Chemistry, 2023).
Read-outs that look alike come from different tables or passages of the source.

How the values were obtained:
[1] = system: Aedes albopictus; test: Effective dose / protection efficacy, human-bait technique; assay type: in vivo; settings: for 100% PE: Table S1; for Protection efficacy (dose to obtain complete protection (100%) from bite attempts): applied on skin of volunteers, 3 min exposure; for pest or weed control at 0.081 µg/cm2, 0.081 µg/cm2 / pest or weed control at 0.17 µg/cm2, 0.17 µg/cm2 / pest or weed control at 0.33 µg/cm2, 0.33 µg/cm2 / pest or weed control at 0.5 µg/cm2, 0.5 µg/cm2 / pest or weed control at 0.83 µg/cm2, 0.83 µg/cm2 / pest or weed control at 1.7 µg/cm2, 1.7 µg/cm2 / pest or weed control at 8.3 µg/cm2, 8.3 µg/cm2 / pest or weed control at 16.7 µg/cm2, 16.7 µg/cm2 / pest or weed control at 83.3 µg/cm2, 83.3 µg/cm2: Aedes albopictus, topical, read-out: Protection efficacy PE%
Protocol: The repellence of DEET, Icaridin (both supplied by Istituto Biochimico VEBI s.r.l.), acetals, and the synthesized hydroxyacetals was evaluated againstAedes albopictususing the human-bait technique (to simulate the condition of human skin on which repellents will be applied).[22]A. albopictuswas reared and tested at 26 ± 2 °C, ≥60 ± 10% relative humidity (RH), and at 14:10 h light/dark photoperiod, within Plexiglas cylindrical laboratory cages (35 cm diameter, 60 cm length) with one end closed by a net. During the tests, cages contained ≈150 nulliparous, 4–7 day-old, nonblood-fed females. For each compound to be tested, up to six volunteers participated in the trial.
The study was approved by the Regional Ethics Committee for Clinical Trials of Tuscany Region with the registered number 20383. Volunteers agreed to take part in the experiments following informed consent; only volunteers non-allergic to mosquito bites participated in the trials. On the day of the bioassay, they had no contact with lotions, perfumes, oils, or perfumed soaps. They wore latex surgical gloves, in which a dorsal square area of 30 cm^2 was cut open. Mosquito-exposed skin was treated with 50 μL of ethanol, as the negative hand control. The other hand was treated with 50 μL of the tested compounds in ethanol solution (dosages corresponding to 0.081, 0.17, 0.33, 0.5, 0.83, 1.7, 8.3, 16.7, and 83.3 μg/cm^2). Both hands were presented in the same test cage. The number of probing mosquitoes in a 3 min exposure period was recorded. During each test, the control and the treated hand were presented interchanged to verify the mosquitoes’ readiness to bite. Trials were considered valid only if at least 30 mosquitoes performed probing behavior on the control hand before each repellent dosage was tested. The protection efficacy (PE %) obtained from all replicates was calculated, according to the WHO guidelines[31] using this formula [drawing 1]
To evaluate the protection efficacy, volunteers applied increasing doses of the compounds to the skin on the back of their hands (30 cm^2, while the rest was covered with a rubber glove) and counted the number of mosquitoes attempting to bite; the solvent only was used on the control hand. The protection (percentage of repelled mosquitoes) was calculated as reported in the Material and Methods section.

[2] = system: Aedes albopictus; test: Protection time at 0.17 mg/cm2, human-bait technique; assay type: in vivo; settings: for Average PT >95% (% coefficient of variation) / Estimated 100% PT (complete protection time, mean±SE): at the dose of 0.17mg/cm2; for Estimated 100% PT (complete protection time, mean±SE): Kaplan–Meier estimate; for Protection time (95% protection): dose of 0.17 mg/cm^2, tests ended after 8 h; for pest or weed control at 0.17 mg/cm2, 0.17 mg/cm2: Aedes albopictus, topical, read-out: Protection time PE%
Protocol: To evaluate the protection time of derivatives, the PE % was measured with 100 μL of a 5% ethanol solution, corresponding to 0.17 mg/cm^2 of exposed skin, under the same laboratory conditions. Mosquito-exposed skin was treated with 100 μL of ethanol, as the negative hand control. For each volunteer (up to 8), the test was performed every hour, up to 8 h from the application. The protection time of DEET and Icaridin was measured under the same conditions. Since these trials were run in parallel with those aimed to profile the cytotoxicity of the compounds (paragraph 2.6), we interrupted the experiments for those compounds showing to have higher cytotoxicity than Icaridin and DEET as soon as the results were available. For this reason, the number of volunteers differs among the compounds.
The average time until protection which was higher than 95% protection time was considered for each compound. Moreover, for the compounds tested on at least three volunteers, the complete (100%) protection time was also estimated (SPSS 28.01.0) using the Kaplan–Meier survivor function procedure.[22]

SMILES	Protection efficacy PE% ([1]; 0.081 µg/cm2) [%]	Protection efficacy PE% ([1]; 0.17 µg/cm2) [%]	100% PE [1] [µg/cm2]	Average PT >95% (% coefficient of variation) [2]	Estimated 100% PT (complete protection time, mean±SE) [2] [min]	Protection efficacy (dose to obtain complete protection (100%) from bite attempts) [1] [μg/cm^2]	Protection time (95% protection) [2] [h]	pest or weed control at 0.081 µg/cm2, 0.081 µg/cm2 ([1]; 0.081 µg/cm2) [%]	pest or weed control at 0.17 µg/cm2, 0.17 µg/cm2 ([1]; 0.17 µg/cm2) [%]	pest or weed control at 0.33 µg/cm2, 0.33 µg/cm2 ([1]; 0.33 µg/cm2) [%]	pest or weed control at 0.5 µg/cm2, 0.5 µg/cm2 ([1]; 0.5 µg/cm2) [%]	pest or weed control at 0.83 µg/cm2, 0.83 µg/cm2 ([1]; 0.83 µg/cm2) [%]	pest or weed control at 1.7 µg/cm2, 1.7 µg/cm2 ([1]; 1.7 µg/cm2) [%]	pest or weed control at 8.3 µg/cm2, 8.3 µg/cm2 ([1]; 8.3 µg/cm2) [%]	pest or weed control at 16.7 µg/cm2, 16.7 µg/cm2 ([1]; 16.7 µg/cm2) [%]	pest or weed control at 83.3 µg/cm2, 83.3 µg/cm2 ([1]; 83.3 µg/cm2) [%]	pest or weed control at 0.17 mg/cm2, 0.17 mg/cm2 ([2]; 0.17mg/cm2, 1 h) [%]	pest or weed control at 0.17 mg/cm2, 0.17 mg/cm2 ([2]; 0.17mg/cm2, 2 h) [%]	pest or weed control at 0.17 mg/cm2, 0.17 mg/cm2 ([2]; 0.17mg/cm2, 3 h) [%]	pest or weed control at 0.17 mg/cm2, 0.17 mg/cm2 ([2]; 0.17mg/cm2, 4 h) [%]	other results
CCCCCC1(CCCCC)OCC(CO)O1 (racemic) [23a]	33.33	54.16	83.3	360 (4.8) min	240 ± 65	–	–	–	–	–	–	–	–	–	–	–	–	–	–	–	Protection efficacy PE% ([1]; 0.33 µg/cm2): 97.01%; Protection efficacy PE% ([1]; 0.5 µg/cm2): 76.81%; Protection efficacy PE% ([1]; 0.83 µg/cm2): 76.67%; Protection efficacy PE% ([1]; 1.7 µg/cm2): 93.75%; Protection efficacy PE% ([1]; 8.3 µg/cm2): 88.23%; Protection efficacy PE% ([1]; 16.7 µg/cm2): 98.04%; Protection efficacy PE% ([1]; 83.3 µg/cm2): 100%; Protection time PE% ([2]; 0.17mg/cm2, 0 min): 100%; Protection time PE% ([2]; 0.17mg/cm2, 1 h): 99.62%; Protection time PE% ([2]; 0.17mg/cm2, 2 h): 98.79%; Protection time PE% ([2]; 0.17mg/cm2, 3 h): 97.92%; Protection time PE% ([2]; 0.17mg/cm2, 4 h): 98.99%; Protection time PE% ([2]; 0.17mg/cm2, 5 h): 88.68%; Protection time PE% ([2]; 0.17mg/cm2, 6 h): 97.92%; Protection time PE% ([2]; 0.17mg/cm2, 7 h): 92.53%; Protection time PE% ([2]; 0.17mg/cm2, 8 h): 92.80%
CCCCCCCC1OCC(CO)O1 (mixture of isomers) [9a]	0	33.33	8.3	420 (4.5) min	307 ± 53	8.3	7	–	–	–	–	–	–	–	–	–	–	–	–	–	Protection efficacy PE% ([1]; 0.33 µg/cm2): 72.85%; Protection efficacy PE% ([1]; 0.5 µg/cm2): 74.69%; Protection efficacy PE% ([1]; 0.83 µg/cm2): 82.72%; Protection efficacy PE% ([1]; 1.7 µg/cm2): 90.12%; Protection efficacy PE% ([1]; 8.3 µg/cm2): 100%; Protection efficacy PE% ([1]; 16.7 µg/cm2): 100%; Protection efficacy PE% ([1]; 83.3 µg/cm2): 100%; Protection time PE% ([2]; 0.17mg/cm2, 0 min): 100%; Protection time PE% ([2]; 0.17mg/cm2, 1 h): 99.77%; Protection time PE% ([2]; 0.17mg/cm2, 2 h): 99.42%; Protection time PE% ([2]; 0.17mg/cm2, 3 h): 100%; Protection time PE% ([2]; 0.17mg/cm2, 4 h): 100%; Protection time PE% ([2]; 0.17mg/cm2, 5 h): 99.61%; Protection time PE% ([2]; 0.17mg/cm2, 6 h): 95.75%; Protection time PE% ([2]; 0.17mg/cm2, 7 h): 95.88%; Protection time PE% ([2]; 0.17mg/cm2, 8 h): 94.12%
CCCCCCCC1(C)OCC(CO)O1 (stereo not shown) [15a]	–	–	16.7	480 (6.0) min	380 ± 61	16.7	8	7.74	35.8	45.9	54.7	62.2	89.4	98.8	100	100	100	99.6	100	100	pest or weed control at 0.17 mg/cm2, 0.17 mg/cm2 ([2]; 0.17mg/cm2, 5 h): 97.7%; pest or weed control at 0.17 mg/cm2, 0.17 mg/cm2 ([2]; 0.17mg/cm2, 6 h): 98.5%; pest or weed control at 0.17 mg/cm2, 0.17 mg/cm2 ([2]; 0.17mg/cm2, 7 h): 97.5%; pest or weed control at 0.17 mg/cm2, 0.17 mg/cm2 ([2]; 0.17mg/cm2, 8 h): 96.7%
CCCCCCCCCC1OCC(CO)O1 (mixture of isomers) [18a]	22.98	41.74	–	420 (2.1) min	190 ± 50	16.7	–	–	–	–	–	–	–	–	–	–	–	–	–	–	Protection efficacy PE% ([1]; 0.33 µg/cm2): 40.93%; Protection efficacy PE% ([1]; 0.5 µg/cm2): 77.98%; Protection efficacy PE% ([1]; 0.83 µg/cm2): 69.25%; Protection efficacy PE% ([1]; 1.7 µg/cm2): 87.67%; Protection efficacy PE% ([1]; 8.3 µg/cm2): 95.83%; Protection efficacy PE% ([1]; 16.7 µg/cm2): 100%; Protection efficacy PE% ([1]; 83.3 µg/cm2): 100%; Protection time PE% ([2]; 0.17mg/cm2, 0 min): 100%; Protection time PE% ([2]; 0.17mg/cm2, 1 h): 97.63%; Protection time PE% ([2]; 0.17mg/cm2, 2 h): 100%; Protection time PE% ([2]; 0.17mg/cm2, 3 h): 98.31%; Protection time PE% ([2]; 0.17mg/cm2, 4 h): 99.28%; Protection time PE% ([2]; 0.17mg/cm2, 5 h): 99.23%; Protection time PE% ([2]; 0.17mg/cm2, 6 h): 97.68%; Protection time PE% ([2]; 0.17mg/cm2, 7 h): 92.86%; Protection time PE% ([2]; 0.17mg/cm2, 8 h): 95.18%
CCCCCCCCCC1(C)OCC(CO)O1 (stereo not shown) [22a]	–	–	–	420 (3.5) min	380 ± 105	8.3	7	2.83	32.6	50	37.5	65.4	94.2	100	100	100	100	100	98.9	98.2	pest or weed control at 0.17 mg/cm2, 0.17 mg/cm2 ([2]; 0.17mg/cm2, 5 h): 95.2%; pest or weed control at 0.17 mg/cm2, 0.17 mg/cm2 ([2]; 0.17mg/cm2, 6 h): 99.5%; pest or weed control at 0.17 mg/cm2, 0.17 mg/cm2 ([2]; 0.17mg/cm2, 7 h): 96.6%; pest or weed control at 0.17 mg/cm2, 0.17 mg/cm2 ([2]; 0.17mg/cm2, 8 h): 90%
CCN(CC)C(=O)c1cccc(C)c1 [DEET, N,N-diethyl-3-methylbenzamide, reference compound]	–	–	8.3	120 (1.4) min	120 ± 26	8.3	2	18.9	34.7	67.3	74.4	79.8	88.6	100	100	100	98	87.4	81.4	59.4	–
CCCCC1(CCCC)OCC(C)(CO)CO1 [16b]	–	–	1.7	420 (8.0) min	180 ± 64	1.7	7	0	40.6	31.2	68.4	94.7	100	100	100	100	98.6	97.5	99.5	96.3	pest or weed control at 0.17 mg/cm2, 0.17 mg/cm2 ([2]; 0.17mg/cm2, 5 h): 95.1%; pest or weed control at 0.17 mg/cm2, 0.17 mg/cm2 ([2]; 0.17mg/cm2, 6 h): 93.7%; pest or weed control at 0.17 mg/cm2, 0.17 mg/cm2 ([2]; 0.17mg/cm2, 7 h): 96.2%; pest or weed control at 0.17 mg/cm2, 0.17 mg/cm2 ([2]; 0.17mg/cm2, 8 h): 94.6%
